Results published in US11878975B2, “Substituted indole compounds useful as TLR inhibitors” (BRISTOL-MYERS SQUIBB COMPANY, priority 2017, dated 2024).
pIC50: −log10 of the molar value.

Key:
Assay type in all cases: cell-based
human TLR8 = molecular target: T1, human TLR8 (Homo sapiens, UniProt Q9NR97); experiment: TLR8 inhibition reporter assay (HEK-Blue cells, SEAP reporter, R848 stimulation); conditions: HEK-Blue cells overexpressing human TLR8, SEAP reporter, R848 15.9 μM
T1 construct: host or cells: HEK-Blue cells
T1 sequence (Q9NR97 27-1041): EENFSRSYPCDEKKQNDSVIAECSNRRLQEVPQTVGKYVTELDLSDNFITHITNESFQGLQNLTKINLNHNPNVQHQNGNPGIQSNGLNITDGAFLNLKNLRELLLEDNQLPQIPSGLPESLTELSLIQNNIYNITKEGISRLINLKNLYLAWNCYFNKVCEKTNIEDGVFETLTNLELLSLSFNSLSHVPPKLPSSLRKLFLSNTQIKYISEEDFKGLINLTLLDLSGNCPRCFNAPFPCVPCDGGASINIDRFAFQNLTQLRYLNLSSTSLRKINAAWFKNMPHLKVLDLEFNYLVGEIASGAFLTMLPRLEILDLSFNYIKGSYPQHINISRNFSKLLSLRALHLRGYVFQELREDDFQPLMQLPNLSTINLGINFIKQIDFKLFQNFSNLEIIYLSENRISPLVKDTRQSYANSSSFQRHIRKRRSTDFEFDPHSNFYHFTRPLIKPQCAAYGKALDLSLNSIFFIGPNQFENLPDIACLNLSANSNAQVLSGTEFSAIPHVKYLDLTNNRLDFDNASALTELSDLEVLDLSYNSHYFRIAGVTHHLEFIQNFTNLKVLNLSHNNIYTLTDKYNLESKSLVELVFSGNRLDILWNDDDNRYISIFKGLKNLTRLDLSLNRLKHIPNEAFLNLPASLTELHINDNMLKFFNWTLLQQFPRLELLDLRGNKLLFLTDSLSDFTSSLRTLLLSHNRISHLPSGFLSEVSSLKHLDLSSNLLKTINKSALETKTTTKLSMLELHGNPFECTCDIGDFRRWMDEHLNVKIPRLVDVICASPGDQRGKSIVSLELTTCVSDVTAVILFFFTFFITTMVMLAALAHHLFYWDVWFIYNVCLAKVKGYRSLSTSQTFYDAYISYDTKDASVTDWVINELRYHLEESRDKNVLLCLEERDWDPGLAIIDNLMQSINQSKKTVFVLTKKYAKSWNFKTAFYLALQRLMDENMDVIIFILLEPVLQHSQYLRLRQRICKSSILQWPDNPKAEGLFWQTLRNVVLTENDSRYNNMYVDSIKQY
Summary of the method: (§1)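 HEK-Blue cells with NF-κB/AP-1-driven SEAP reporter, pre-treated 30 min at room temperature with compound (0.05 nM-50 μM). Stimulants: gardiquimod 7.5 μM (TLR7), R848 15.9 μM (TLR8) or ODN2006 5 nM (TLR9). SEAP measured after 22 h at 37° C.; percent inhibition versus agonist-plus-DMSO and known-inhibitor wells.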

human TLR7 = molecular target: T2, human TLR7 (Homo sapiens, UniProt Q9NYK1); experiment: TLR7 inhibition reporter assay (HEK-Blue cells, SEAP reporter, gardiquimod stimulation); conditions: HEK-Blue cells overexpressing human TLR7, SEAP reporter, gardiquimod 7.5 μM
T2 construct: host or cells: HEK-Blue cells
T2 sequence (Q9NYK1 27-1049): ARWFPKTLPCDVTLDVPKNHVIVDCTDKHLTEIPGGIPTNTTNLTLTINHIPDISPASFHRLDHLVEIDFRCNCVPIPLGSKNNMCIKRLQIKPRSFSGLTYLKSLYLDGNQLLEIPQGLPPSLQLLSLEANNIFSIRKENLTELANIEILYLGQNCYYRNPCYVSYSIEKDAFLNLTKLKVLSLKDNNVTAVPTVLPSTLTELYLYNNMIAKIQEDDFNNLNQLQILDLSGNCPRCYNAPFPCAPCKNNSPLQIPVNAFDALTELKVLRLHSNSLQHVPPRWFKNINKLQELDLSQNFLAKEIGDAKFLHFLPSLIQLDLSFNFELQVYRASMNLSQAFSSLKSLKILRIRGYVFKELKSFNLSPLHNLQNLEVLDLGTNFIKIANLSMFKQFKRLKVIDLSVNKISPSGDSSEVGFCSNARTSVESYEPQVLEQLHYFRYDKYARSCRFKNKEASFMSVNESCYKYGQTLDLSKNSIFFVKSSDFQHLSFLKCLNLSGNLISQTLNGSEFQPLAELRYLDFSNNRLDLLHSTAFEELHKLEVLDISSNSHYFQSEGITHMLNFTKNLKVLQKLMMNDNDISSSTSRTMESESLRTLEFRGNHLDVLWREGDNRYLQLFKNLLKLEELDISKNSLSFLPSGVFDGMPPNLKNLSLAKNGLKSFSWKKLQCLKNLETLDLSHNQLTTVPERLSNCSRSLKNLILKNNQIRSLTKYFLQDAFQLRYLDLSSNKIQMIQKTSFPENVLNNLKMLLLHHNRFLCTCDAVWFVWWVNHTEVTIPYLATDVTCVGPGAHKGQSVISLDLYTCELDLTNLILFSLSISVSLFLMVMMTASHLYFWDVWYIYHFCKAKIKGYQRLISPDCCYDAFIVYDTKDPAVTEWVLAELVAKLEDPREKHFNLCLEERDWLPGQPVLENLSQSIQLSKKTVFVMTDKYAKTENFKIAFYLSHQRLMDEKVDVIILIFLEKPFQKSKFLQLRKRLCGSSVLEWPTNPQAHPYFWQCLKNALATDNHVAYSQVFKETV
Summary of the method: as §1

human TLR9 = molecular target: T3, human TLR9 (Homo sapiens, UniProt Q9NR96); experiment: TLR9 inhibition reporter assay (HEK-Blue cells, SEAP reporter, ODN2006 stimulation); conditions: HEK-Blue cells overexpressing human TLR9, SEAP reporter, ODN2006 5 nM
T3 construct: host or cells: HEK-Blue cells
T3 sequence (Q9NR96 26-1032): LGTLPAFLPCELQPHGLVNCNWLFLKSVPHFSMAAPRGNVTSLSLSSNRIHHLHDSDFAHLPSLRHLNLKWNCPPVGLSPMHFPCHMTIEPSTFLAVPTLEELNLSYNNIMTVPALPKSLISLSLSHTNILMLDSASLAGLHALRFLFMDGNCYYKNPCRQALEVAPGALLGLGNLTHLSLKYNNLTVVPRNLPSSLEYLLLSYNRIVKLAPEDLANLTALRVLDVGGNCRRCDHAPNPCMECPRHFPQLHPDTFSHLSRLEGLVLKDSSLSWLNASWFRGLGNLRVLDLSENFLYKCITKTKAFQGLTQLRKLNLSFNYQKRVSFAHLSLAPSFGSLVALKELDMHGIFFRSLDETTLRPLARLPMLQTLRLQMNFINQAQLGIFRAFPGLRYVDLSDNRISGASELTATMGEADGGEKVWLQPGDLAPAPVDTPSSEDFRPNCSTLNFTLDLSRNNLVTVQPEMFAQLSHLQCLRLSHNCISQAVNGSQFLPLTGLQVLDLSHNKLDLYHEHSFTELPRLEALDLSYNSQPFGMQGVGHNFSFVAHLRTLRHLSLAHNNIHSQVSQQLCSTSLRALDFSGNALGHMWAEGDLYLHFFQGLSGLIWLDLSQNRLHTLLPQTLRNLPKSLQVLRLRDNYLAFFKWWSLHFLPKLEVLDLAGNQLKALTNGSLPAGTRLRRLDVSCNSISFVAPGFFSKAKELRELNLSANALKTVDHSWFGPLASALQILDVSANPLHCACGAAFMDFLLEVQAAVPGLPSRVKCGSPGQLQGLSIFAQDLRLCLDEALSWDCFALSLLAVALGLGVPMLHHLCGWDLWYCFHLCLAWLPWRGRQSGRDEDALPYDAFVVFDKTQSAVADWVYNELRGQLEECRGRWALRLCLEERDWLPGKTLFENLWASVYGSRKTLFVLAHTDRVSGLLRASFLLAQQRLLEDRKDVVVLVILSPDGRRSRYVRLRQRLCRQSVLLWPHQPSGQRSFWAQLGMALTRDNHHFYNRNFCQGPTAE
Summary of the method: as §1

Work on `Cc1cc(-c2[nH]c3ccc(C4CCC(N(C)C(=O)CN(C)C)CC4)cc3c2C(C)C)cn2ncnc12` (stereo not drawn) [Example 148] yielded a pIC50 (human TLR8) of 8.11, a pIC50 (human TLR7) of 9.00 and a pIC50 (human TLR9) of 5.61.

With `Cc1cc(-c2[nH]c3ccc(C4CCC(O)CC4)cc3c2C(C)C)cc(C)n1` (single isomer, unassigned) [Example 171, 4-(2-(2,6-dimethylpyridin-4-yl)-3-isopropyl-1H-indol-5-yl)cyclohexanol] the pIC50 (human TLR8) was 6.67, the pIC50 (human TLR7) was 7.57 and the pIC50 (human TLR9) was < 4.30.

Work on `CC(C)c1c(-c2ccnc3[nH]ncc23)[nH]c2ccc(C3CCC(Oc4ccncc4)CC3)cc12` (stereo not drawn) [Example 504] yielded a pIC50 (human TLR8) of 6.79, a pIC50 (human TLR7) of 7.01 and a pIC50 (human TLR9) of 5.30.

In the case of `Cc1cc(-c2[nH]c3ccc(C4CCC(O)(C(F)(F)F)CC4)cc3c2C(C)C)cc(C)n1` (stereo not drawn) [Example 175, 4-(2-(2,6-dimethylpyridin-4-yl)-3-isopropyl-1H-indol-5-yl)-1-(trifluoromethyl)cyclohexanol], the pIC50 (human TLR8) was 6.92, the pIC50 (human TLR7) was 7.43 and the pIC50 (human TLR9) was 5.67.

`COc1cc(-c2[nH]c3ccc(C4CCC(N5CC[C@H](N(C)C)C5)CC4)cc3c2C(C)C)cn2ncnc12` (stereo partly drawn) [Example 32] gave a pIC50 (human TLR8) of 9.80, a pIC50 (human TLR7) of 9.85 and a pIC50 (human TLR9) of 6.77.

In the case of `COCCN1CC(c2ccc3[nH]c(-c4cn5cnnc5c(C)c4C)c(C(C)C)c3c2)C1` [Example 550], the pIC50 (human TLR8) was 7.89, the pIC50 (human TLR7) was 7.77 and the pIC50 (human TLR9) was 4.87.

For `COc1cc(-c2[nH]c3ccc(C4CNC(C)(C)CO4)cc3c2C(C)C)cn2ncnc12` (stereo not drawn) [Example 368], the pIC50 (human TLR8) was 8.80, the pIC50 (human TLR7) was 9.35 and the pIC50 (human TLR9) was 5.61.

Compound `Cc1c(-c2[nH]c3ccc(CC4CN(C(=O)CN(C)C)C4)cc3c2C(C)C)cn2ncnc2c1C` [Example 436] has a pIC50 (human TLR8) of 7.96, a pIC50 (human TLR7) of 8.52 and a pIC50 (human TLR9) of 4.97.

`CNC(=O)CNC1CCC(c2ccc3[nH]c(-c4cc(OC)c5ncnn5c4)c(C(C)C)c3c2)CC1` (stereo not drawn) [Example 166] gave a pIC50 (human TLR8) of 7.74, a pIC50 (human TLR7) of 8.40 and a pIC50 (human TLR9) of 4.77.

With `Cc1c(-c2[nH]c3ccc(C4CNC4)cc3c2C(C)C)cn2ncnc2c1C` [Example 545] the pIC50 (human TLR8) was 8.42, the pIC50 (human TLR7) was 8.70 and the pIC50 (human TLR9) was 5.69.

`Cc1cc(-c2[nH]c3ccc(C4CNCCO4)cc3c2C(C)C)cn2ncnc12` (stereo not drawn) [Example 283] was tested, and the pIC50 (human TLR8) was 8.89, the pIC50 (human TLR7) was 9.02 and the pIC50 (human TLR9) was 5.57.

In the case of `Cc1cc(-c2[nH]c3ccc([C@@H]4C[C@H]4C(=O)N(C)C4CC5CCN4CC5)cc3c2C(C)C)ccn1` (stereo partly drawn) [Example 459], the pIC50 (human TLR8) was 8.00, the pIC50 (human TLR7) was 7.72 and the pIC50 (human TLR9) was 6.76.

`CNC1CCC(c2ccc3[nH]c(-c4cc(OC)c5ncnn5c4)c(C(C)C)c3c2)CC1` (single isomer, unassigned) [Example 146, 4-(3-isopropyl-2-(8-methoxy-[1,2,4]triazolo[1,5-a]pyridin-6-yl)-1H-indol-5-yl)-N-methylcyclohexanamine] gave a pIC50 (human TLR8) of 8.43, a pIC50 (human TLR7) of 9.10 and a pIC50 (human TLR9) of 5.79.

`CN[C@@H](C)C(=O)NC1CCC(c2ccc3[nH]c(-c4cn5ncnc5c(C)c4C)c(C(C)C)c3c2)CC1` (stereo partly drawn) [Example 131] gave a pIC50 (human TLR8) of 9.00, a pIC50 (human TLR7) of 9.35 and a pIC50 (human TLR9) of 5.52.

`COc1ccc(-c2[nH]c3ccc(C4CCCN(C(=O)CN(C)C)C4)cc3c2C(C)C)cc1OC` (stereo not drawn) [Example 195] gave a pIC50 (human TLR8) of 7.37, a pIC50 (human TLR7) of 7.70 and a pIC50 (human TLR9) of 5.66.

With `CNC(=O)CN1CCOC(c2ccc3[nH]c(-c4cc(OC)c5ncnn5c4)c(C(C)C)c3c2)C1` (stereo not drawn) [Example 315] the pIC50 (human TLR8) was 7.59, the pIC50 (human TLR7) was 8.05 and the pIC50 (human TLR9) was < 4.30.

In the case of `CCN(CC)CC(=O)NC1CCC(c2ccc3[nH]c(-c4cn5ncnc5c(C)c4C)c(C(C)C)c3c2)CC1` (stereo not drawn) [Example 125], the pIC50 (human TLR8) was 8.00, the pIC50 (human TLR7) was 7.96 and the pIC50 (human TLR9) was 5.16.

`COc1cc(-c2[nH]c3ccc(CC4CN(C(=O)CN(C)C)C4)cc3c2C(C)C)cn2ncnc12` [Example 434] gave a pIC50 (human TLR8) of 8.13, a pIC50 (human TLR7) of 9.00 and a pIC50 (human TLR9) of 5.13.

Work on `COCCN(C)C1CCC(c2ccc3[nH]c(-c4cc(OC)c5ncnn5c4)c(C(C)C)c3c2)CC1` (single isomer, unassigned) [Example 79] yielded a pIC50 (human TLR8) of 8.24, a pIC50 (human TLR7) of 8.70 and a pIC50 (human TLR9) of 5.59.

For `Cc1c(-c2[nH]c3ccc(C4CN(CCS(C)(=O)=O)C4)cc3c2C(C)C)cn2cnnc2c1C` [Example 532], the pIC50 (human TLR8) was 7.70, the pIC50 (human TLR7) was 7.89 and the pIC50 (human TLR9) was 4.77.

Compound `Cc1cc(-c2[nH]c3ccc([C@H]4C[C@H]4C(=O)NC4CCNCC4)cc3c2C(C)C)ccn1` [Example 456] has a pIC50 (human TLR8) of 7.25, a pIC50 (human TLR7) of 6.91 and a pIC50 (human TLR9) of 6.65.

`CC(C)c1c(-c2ccnc3[nH]ncc23)[nH]c2ccc(C3CCC(OC4CCNCC4)CC3)cc12` (stereo not drawn) [Example 502] gave a pIC50 (human TLR8) of 7.64, a pIC50 (human TLR7) of 7.15 and a pIC50 (human TLR9) of 6.50.

In the case of `Cc1c(-c2[nH]c3ccc(C4CC(NCCS(C)(=O)=O)C4)cc3c2C(C)C)cn2ncnc2c1C` (stereo not drawn) [Example 572], the pIC50 (human TLR8) was 9.51, the pIC50 (human TLR7) was 9.03 and the pIC50 (human TLR9) was 5.30.
